Where two headings read alike, the source gives them in different places.
Columns and labels:
[1] = test system: normal skin; details: comparable drug and light doses; cited from earlier work
[2] = test system: tumor; details: cited from earlier work
[3] = test system: cell killing; details: cited from earlier work; for activity in photodynamic therapy: in vitro conditions; for photosensitized cell killing: low intensity of red light
[4] = Stability of compounds; type: physicochemical; details: decomposes to purpurin-18 methyl ester (3) and polar baseline material
[5] = Water solubility; type: physicochemical
[6] = Long wavelength molar extinction coefficient; type: physicochemical; details: in methanol, at 660 nm
Procedure: Lysyl-chlorin-p6 was prepared by treatment of purpurin 18 methyl ester (obtained from chlorophyll-a) with lysine in a mixture of dichloromethane, pyridine, and water. It was purified using a Waters Associate's C18 SepPak cartridge. Reversed phase analytical high-performance liquid chromatography (HPLC) indicated the product to consist of 60% lysyl chlorin-p6 and 40% chlorin-p6 based on equal absorbance at 403 nm. This mixture is termed "LCP". The long wavelength molar extinction coefficient of lysyl-chlorin-p6 in methanol was 39,600 at 660 nm.

**Q.** Which “level of PDT induced normal skin damage vs HpD” value [1] does the source give for `C=Cc1c(C)c2cc3nc(c(CC(=O)N[C@@H](CC(=O)[O-])C(=O)[O-])c4[nH]c(cc5nc(cc1[nH]2)C(C)=C5CC)c(C)c4C(=O)[O-])[C@@H](CCC(=O)[O-])[C@@H]3C.[Na+].[Na+].[Na+].[Na+]` [MACE, mono-L-aspartyl-chlorin e6] here?
**A.** The value was “significantly lesser”.

**Q.** What about the tumor cures ([2]; 24 hours between drug administration and light) of the same molecule?
**A.** The tumor cures was “ineffective at inducing tumor cures”.

**Q.** And the tumor cures ([2]; administered 4-6 hours prior to light exposure)?
**A.** The tumor cures was “PDT induced tumor cures were obtained”.

**Q.** What does the source list for `C=Cc1c(C)c2cc3nc(c4c5[nH]c(cc6nc(cc1[nH]2)C(C)=C6CC)c(C)c5C(=O)OC4=O)[C@@H](CCC(=O)O)[C@@H]3C` [Purpurin-18]?
**A.** activity in photodynamic therapy [3]: active in photodynamic therapy; photosensitized cell killing [3]: potent photosensitizers which promote cell killing

**Q.** For `C=Cc1c(C)c2cc3nc(c(C(=O)O)c4[nH]c(cc5nc(cc1[nH]2)C(C)=C5CC)c(C)c4C(=O)NCCCC)[C@@H](CCC(=O)OC)[C@@H]3C` [(VII), chlorin-p6-6-N-butylamide-7-methyl ester], which stability [4] is on record?
**A.** Its stability is “not very stable and readily decomposed”.

**Q.** Which results are given for `C=Cc1c(C)c2cc3nc(c(C(=O)O)c4[nH]c(cc5nc(cc1[nH]2)C(C)=C5CC)c(C)c4C(=O)O)[C@@H](CCC(=O)O)[C@@H]3C` [chlorin-p6]?
**A.** activity in photodynamic therapy [3]: active in photodynamic therapy; photosensitized cell killing [3]: potent photosensitizers which promote cell killing

**Q.** For `C=Cc1c(C)c2cc3nc(c(C(=O)O)c4[nH]c(cc5nc(cc1[nH]2)C(C)=C5CC)c(C)c4C(=O)NCCCCC(N)C(=O)O)[C@@H](CCC(=O)OC)[C@@H]3C` (stereo partly shown) [(II), chlorin-p6 6-N^ε -lysylamide-7-methyl ester], which solubility in water [5] is on record?
**A.** Its solubility in water is “well soluble in water”.

**Q.** What about the “long wavelength molar extinction coefficient” value [6] of the same molecule?
**A.** The value was 39,600.
